The source of these data is patent US20250171462A1 (NICO Therapeutics, Inc., priority 2022, published 2025).

The target in the assay is T1, full-length SARM1 (FL-SARM1) (Homo sapiens, UniProt Q6SZW1).
T1 sequence (Q6SZW1 28-724): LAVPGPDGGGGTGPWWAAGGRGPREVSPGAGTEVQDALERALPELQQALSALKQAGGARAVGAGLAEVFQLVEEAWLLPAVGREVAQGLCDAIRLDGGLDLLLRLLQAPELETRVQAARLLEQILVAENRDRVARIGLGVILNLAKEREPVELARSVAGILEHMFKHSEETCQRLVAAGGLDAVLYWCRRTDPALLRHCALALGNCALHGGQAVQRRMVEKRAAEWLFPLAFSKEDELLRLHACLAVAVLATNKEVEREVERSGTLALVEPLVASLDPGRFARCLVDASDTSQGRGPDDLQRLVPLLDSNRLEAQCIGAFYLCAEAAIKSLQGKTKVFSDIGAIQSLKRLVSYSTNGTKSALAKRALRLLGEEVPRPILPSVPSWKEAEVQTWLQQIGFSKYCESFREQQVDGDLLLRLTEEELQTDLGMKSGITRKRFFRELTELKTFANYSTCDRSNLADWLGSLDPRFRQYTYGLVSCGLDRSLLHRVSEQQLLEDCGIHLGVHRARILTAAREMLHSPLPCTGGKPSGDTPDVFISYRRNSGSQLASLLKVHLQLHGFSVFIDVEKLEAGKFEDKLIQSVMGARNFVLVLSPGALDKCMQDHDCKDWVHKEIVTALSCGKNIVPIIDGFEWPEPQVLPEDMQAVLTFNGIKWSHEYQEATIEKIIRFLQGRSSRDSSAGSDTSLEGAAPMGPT
The assay is described as follows: FL-SARM1 cellular lysate assay (NAD/NADH-Glo detection of remaining NAD+, NMN-activated).

Where [1] appears, read: Activity (IC50 class), 11 point curve.
[2] abbreviates: Activity (μM) (IC50), 11 point curve.
Setting [3] is: read-out: Activity (IC50 class), 11 point curve.

Read-outs that look alike come from different tables or passages of the source. Some results are limits rather than exact numbers.

As a reminder, the IC50 is the midpoint of a concentration-inhibition curve. Take `Cc1ccc(NC(=O)[C@H]2[C@@H]3CC(F)(F)C[C@@H]32)cc1-c1cccnn1` [Example 289, trans-3,3-difluoro-N-(4-methyl-3-pyridazin-3-ylphenyl)bicyclo[3.1.0] hexane-6-carboxamide]: the IC50 by setting is: under setting [1], greater than 10 µM; under setting [2], 26 µM.

For `Cc1ccc(NC(=O)[C@H]2[C@@H](C)CCN2c2ccccn2)cc1-c1ncc(F)cn1` [Example 277, (2R,3S)-N-[3-(5-fluoropyrimidin-2-yl)-4-methylphenyl]-3-methyl-1-pyridin-2-ylpyrrolidine-2-carboxamide], the IC50 is 1 to 10 µM under setting [1] and 1.4 µM under setting [2].

In the case of `Cc1ccc(NC(=O)N2CCC[C@H]2c2ccccc2)cc1-c1ccccn1` [Example 96, (2S)-N-(4-methyl-3-pyridin-2-ylphenyl)-2-phenylpyrrolidine-1-carboxamide], the half-inhibitory concentration (IC50) runs as follows: under setting [2], 0.7 µM; under setting [3], 0.0001 to 1 µM.

`Cc1ccc(NC(=O)CN2C(=O)CCOc3ccccc32)cc1-c1ccccn1` [Example 134, N-(4-methyl-3-pyridin-2-ylphenyl)-2-(4-oxo-2,3-dihydro-1,5-benzoxazepin-5-yl)acetamide]: the IC50 is 1 to 10 µM under setting [1] and 1.9 µM under setting [2].

As to `Cc1ccc(NC(=O)C2CCc3cccnc32)cc1-c1ncc(F)cn1` (racemic) [Example 290, N-[3-(5-fluoropyrimidin-2-yl)-4-methylphenyl]-6,7-dihydro-5H-cyclopenta[b]pyridine-7-carboxamide], the half-inhibitory concentration (IC50) is, setting by setting: under setting [1], greater than 10 µM; under setting [2], 17 µM.

`CCc1ccc(NC(=O)N2C3CCCC2C3)cc1-c1ccc(F)cn1` [Example 28, N-(4-ethyl-3-(5-fluoropyridin-2-yl)phenyl)-6-azabicyclo[3.1.1]heptane-6-carboxamide]: the 50% inhibitory concentration (IC50) runs as follows: under setting [2], 0.6 µM; under setting [3], 0.0001 to 1 µM.

Turning to `COC(C)[C@@]12CC(C[C@@H](C)C1)N2C(=O)Nc1ccc(C)c(-c2ncc(F)cn2)c1` (single isomer, unassigned) [Example 191, cis-N-(3-(5-fluoropyrimidin-2-yl)-4-methylphenyl)-1-(1-methoxyethyl)-3-methyl-6-azabicyclo[3.1.1]heptane-6-carboxamide], the half-inhibitory concentration (IC50) under setting [2] was 0.0009 µM and the IC50 under setting [3] was in the range of 0.0001 to 1 µM.

Turning to `Cc1ccc(NC(=O)N2C[C@@H]3CCC[C@@H]32)cc1-c1ncc(F)cn1` (racemic) [Example 222, N-[3-(5-fluoropyrimidin-2-yl)-4-methylphenyl]-6-azabicyclo[3.2.0]heptane-6-carboxamide], the IC50 is, setting by setting: under setting [1], 1 to 10 µM; under setting [2], 3.4 µM.

For the compound `Cc1ccc(NC(=O)N2C3CCCCC2C3)cc1-c1ccccn1` [Example 23, N-(4-methyl-3-(pyridin-2-yl)phenyl)-7-azabicyclo[4.1.1]octane-7-carboxamide], the half-maximal inhibitory concentration (IC50) reads like this: under setting [2], 0.04 µM; under setting [3], 0.0001 to 1 µM.

As to `Cc1ccc(NC(=O)[C@H]2[C@H](C)C2(F)F)cc1-c1ccccn1` (racemic) [Example 135, trans-2,2-difluoro-3-methyl-N-(4-methyl-3-pyridin-2-ylphenyl)cyclopropane-1-carboxamide], the IC50 is, setting by setting: under setting [1], 1 to 10 µM; under setting [2], 3.3 µM.

Turning to `Cc1ccc(NC(=O)[C@H]2C[C@H]3C[C@H]3N2c2ncccn2)cc1-c1ncccn1` [Example 266, (1R,3R,5R)-N-(4-methyl-3-pyrimidin-2-ylphenyl)-2-pyrimidin-2-yl-2-azabicyclo[3.1.0]hexane-3-carboxamide], the IC50 reads like this: under setting [1], 1 to 10 µM; under setting [2], 4.2 µM.

In the case of `Cc1ccc(NC(=O)N2C3CC2CN(C2CCC2)C3)cc1-c1ccccn1` [Example 6, 3-Cyclobutyl-N-(4-methyl-3-(pyridin-2-yl)phenyl)-3,6-diazabicyclo[3.1.1]heptane-6-carboxamide], the concentration for half-maximal inhibition (IC50) runs as follows: under setting [1], 1 to 10 µM; under setting [2], 4.2 µM.

`Cc1ccc(NC(=O)C2C3CC(C3)N2c2ccccn2)cc1-c1ncc(F)cn1` (stereo not drawn) [Example 271, N-(3-(5-fluoropyrimidin-2-yl)-4-methylphenyl)-2-(pyridin-2-yl)-2-azabicyclo[2.1.1]hexane-3-carboxamide]: the IC50 is, setting by setting: under setting [1], greater than 10 µM; under setting [2], 17 µM.

On to `Cc1ccc(NC(=O)[C@H]2CC[C@@H](C)N2c2ccc(F)cn2)cc1-c1ncc(F)cn1` [Example 316], for which the IC50 under setting [1] lay within 1 to 10 µM and the half-inhibitory concentration (IC50) under setting [2] came out at 1.7 µM.

`Cc1ccc(NC(=O)N2C3C[C@@H](C)C[C@@H]2C3)cc1-c1ncc(F)cn1` [Example 50, trans-N-(3-(5-fluoropyrimidin-2-yl)-4-methylphenyl)-3-methyl-6-azabicyclo[3.1.1]heptane-6-carboxamide]: the IC50 is 0.02 µM under setting [2] and 0.0001 to 1 µM under setting [3].

As to `Cc1cc(F)c(NC(=O)N2C3CCCC2C3)cc1-c1ncncn1` [Example 181, N-(2-fluoro-4-methyl-5-(1,3,5-triazin-2-yl)phenyl)-6-azabicyclo[3.1.1]heptane-6-carboxamide], the half-inhibitory concentration (IC50) by setting is: under setting [1], 1 to 10 µM; under setting [2], 7 µM.

`Cc1ccc(NC(=O)N2C3CC2C(=O)N(C)C3)cc1-c1ccccn1` (stereo not drawn) [Example 22, 3-methyl-N-(4-methyl-3-(pyridin-2-yl)phenyl)-2-oxo-3,6-diazabicyclo[3.1.1]heptane-6-carboxamide]: the IC50 under setting [1] is 1 to 10 µM and the concentration for half-maximal inhibition (IC50) under setting [2] was determined as 2 µM.

For `CC(=O)N1C[C@H](c2ccccc2)C[C@@H]1C(=O)Nc1ccc(C)c(-c2ncc(F)cn2)c1` [Example 321], the IC50 is greater than 10 µM under setting [1] and 24 µM under setting [2].

With `Cc1ccc(NC(=O)N2CCCC2c2ccnn2C)cc1-c1ccccn1` (racemic) [Example 89, 2-(2-methylpyrazol-3-yl)-N-(4-methyl-3-pyridin-2-ylphenyl)pyrrolidine-1-carboxamide], the IC50 reads like this: under setting [1], greater than 10 µM; under setting [2], 12 µM.

For `Cc1ccc(NC(=O)[C@H]2CC[C@@H](C(F)(F)F)N2c2ccccn2)cc1-c1ncc(F)cn1` [Example 276, (2R,5S)-N-[3-(5-fluoropyrimidin-2-yl)-4-methylphenyl]-1-pyridin-2-yl-5-(trifluoromethyl) pyrrolidine-2-carboxamide], the IC50 was 1 to 10 µM under setting [1] and 6.3 µM under setting [2].

As for `Cc1ccc(NC(=O)C2[C@@H]3CC[C@@]2(c2ccnn2C)C3)cc1-c1ncc(F)cn1` (single isomer, unassigned) [Example 204, N-[3-(5-fluoropyrimidin-2-yl)-4-methylphenyl]-1-(2-methylpyrazol-3-yl)bicyclo[2.1.1]hexane-5-carboxamide], the half-inhibitory concentration (IC50) was 0.5 µM under setting [2] and 0.0001 to 1 µM under setting [3].

Take `Cc1ccc(NC(=O)OCCc2ccccc2)cc1-c1ncccn1` [Example 178, Phenethyl(4-methyl-3-(pyrimidin-2-yl)phenyl)carbamate]: the half-inhibitory concentration (IC50) by setting is: under setting [1], 1 to 10 µM; under setting [2], 4.3 µM.

For `Cc1ccc(NC(=O)N2CCC[C@@H]2c2ccccc2)cc1-c1ccccn1` [Example 95, (2R)-N-(4-methyl-3-pyridin-2-ylphenyl)-2-phenylpyrrolidine-1-carboxamide], the half-maximal inhibitory concentration (IC50) runs as follows: under setting [1], 1 to 10 µM; under setting [2], 1.4 µM.

`Cc1ccc(NC(=O)C2CCC3(CC3)CN2c2ccccn2)cc1-c1ncc(F)cn1` (racemic) [Example 314]: the IC50 runs as follows: under setting [1], 1 to 10 µM; under setting [2], 1.2 µM.
